Measurements from patent publication US11484543B2, “Compositions and methods for diagnosing and treating diseases and disorders associated with mutant KCNJ5” (The Rockefeller University, priority 2017, dated 2022).
Numbering of substitutions follows the chain as printed. Like-named read-outs stand apart in the source and are kept apart here.

Legend:
Format in all cases: cell-based
KCNJ5^WT = molecular target: T1, KCNJ5^WT (Homo sapiens, UniProt P48544); experiment: Membrane potential assay (FLIPR dye) in inducible KCNJ5^WT HEK293 cells; details: for WT IC50: 10-point dilution 20 to 0.0391 μM, N=3, four-parameter fit
T1 construct: expressed in transfected cells
T1 sequence (P48544 1-419): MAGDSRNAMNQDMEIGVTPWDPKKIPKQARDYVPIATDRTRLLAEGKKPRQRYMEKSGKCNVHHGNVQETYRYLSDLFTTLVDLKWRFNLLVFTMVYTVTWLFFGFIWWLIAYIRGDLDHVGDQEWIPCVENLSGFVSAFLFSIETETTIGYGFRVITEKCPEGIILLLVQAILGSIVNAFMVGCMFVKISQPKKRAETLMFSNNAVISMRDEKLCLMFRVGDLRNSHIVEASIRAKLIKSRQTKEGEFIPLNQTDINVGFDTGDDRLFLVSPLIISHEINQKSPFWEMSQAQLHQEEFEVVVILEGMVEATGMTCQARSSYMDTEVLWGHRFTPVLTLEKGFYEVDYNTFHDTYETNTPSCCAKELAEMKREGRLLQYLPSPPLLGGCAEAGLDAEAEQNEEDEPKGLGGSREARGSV
Procedure: (§1) Single copies of WT or mutant human KCNJ5 cDNAs expressed under the control of tetracycline-inducible promoter were introduced into HEK293 cells using the Flp-in T-Rex System (Invitrogen) according to the manufacturer's instructions. Cells were grown in selective media containing 10% Tet-system approved FBS (Clontech) until induction.
20 μL of WT cells were plated into sterile black with clear bottom tissue culture-treated 384-well plates (Corning) at a density of 10000 cells/well using a Multidrop Combi. Assay plates were centrifuged at 500 rpm for 10 seconds and incubated overnight at 37° C. in a humidified 5% CO2 incubator. After the overnight incubation, 1 μL of tetracycline (final conc. 1 μg/mL) was added to all wells by Multidrop Combi to induce KCNJ5. Assay plates were centrifuged at 500 rpm for 10 seconds and incubated overnight at 37° C. in a humidified 5% CO2 incubator. The next day, 10 μL of medium was removed from each well using a PlateMate Plus (Thermo Scientific). 10 μL of Blue Formula FLIPR membrane potential dye (Molecular Devices) was added to cells using a Multichannel pipettor. Assay plates were incubated for 30 minutes. at 37° C. After incubation, 20 nL was transferred twice from the compound source plate to the cell assay plate using an Aquarius with a 384-well pin tool for a total transfer volume of 40 nL and a final DMSO concentration of 0.2%. 1 μL of 20 mM BaCl2 was added to positive control wells using a Multichannel pipettor. The assay plate was incubated 20 minutes at room temperature in the dark.
Changes in membrane potential were detected using a well-established fluorescence-based measure of membrane potential (FIG. 4).

KCNJ5^G151R = molecular target: T2, KCNJ5^G151R (Homo sapiens, UniProt P48544, G151R); experiment: cell-based
T2 construct: expressed in transfected cells
T2 sequence (P48544 1-419 G151R): T1 sequence (P48544 1-419) with G151R
Procedure: as §1, with “WT or mutant human KCNJ5 cDNAs (Choi et al., 2011, Science 331:768-772) were subcloned into the pcDNA5/FRT/TO vector using BamHI and HindIII. Single” for “Single”
(§2) Assay plates were centrifuged and incubated overnight at 37° C. 20 nL was transferred from the compound source plate to the cell assay plate using an Aquarius (Tecan) with a 384-well pin tool (V&P Scientific). The final concentration of compound for screening was 10 μM and the final DMSO concentration was 0.1%. 1 μL of tetracycline (final concentration 1 μg/mL) was added to compound containing and negative control wells by Multidrop Combi to induce expression. 1 μL of media was added to positive control wells. Assay plates were centrifuged and incubated for 72 hours at 37° C., 5% CO2. CellTiter-Glo (Promega) was used to measure cell viability in the assay wells according to the manufacturer's instructions. 10 μL/well of CellTiter-Glo reagent was added to the assay plates using a MultiDrop Combi. The plates were shaken on a Thermomixer R (Eppendorf) at 1100 rpm for 1 minute and incubated in the dark for 10 minutes at room temperature. Luminescence was read on an Envision plate reader (PerkinElmer) with 0.3 second sampling time per well. Raw data (luminescence counts per second) was normalized to percent effect by the formula 100−(((sample−negative control mean)/(positive control mean−negative control mean))*100).
(§3) Data was analyzed using the programs Excel (Microsoft) and Prism (GraphPad). Errors are SD unless otherwise indicated in the legend. Dose-response curves were fitted with a four-parameter logistic equation: F(x)=D+(A−D)/(1+(x/C)^B), with A=minimum inhibition B=Hill's slope C=inflection point D=maximum inhibition Synthesis of Macrolide Derivatives
(§4) Cellular ATP levels were measured as a proxy for cell viability, using a commercially available luciferase assay (Crouch et al., 1993, Proc. Natl. Acad. Sci. U.S.A. 109:2533-2538).
(§5) Conditions were designed to maximize reproducibility and the signal-to-background ratios (S/B) (Zhang et al., 1999, J. Biomol. Screen 4:67-73) comparing ATP level in uninduced and induced cells. Screening was performed in 384-well plates; compounds were added 24 hours after plating, and channel expression was induced immediately after compound addition. ATP levels were measured 72 hours after induction.
Levels of ATP in uninduced and induced cells without added test compound defined 100% and 0% effect, respectively, and served as a proxy for lethality.

KCNJ5^L168R = molecular target: T3, KCNJ5^L168R (Homo sapiens, UniProt P48544, L168R); experiment: Cell viability assay (ATP, CellTiter-Glo): rescue of KCNJ5^L168R-induced lethality in inducible HEK293 cells; details: for dose response on KCNJ5^L168R: tested at 1.1, 3.3 and 10 μM
T3 construct: expressed in transfected cells
T3 sequence (P48544 1-419 L168R): T1 sequence (P48544 1-419) with L168R
Procedure: as §1, with “WT or mutant human KCNJ5 cDNAs (Choi et al., 2011, Science 331:768-772) were subcloned into the pcDNA5/FRT/TO vector using BamHI and HindIII. Single” for “Single”
as §2, §3, §4, §5

[1] = 10-point dilution 20 to 0.0391 μM, N=3, four-parameter fit
[2] = tested as in FIG. 7 (FIGS. 9 and 10)

SMILES	WT IC50 (KCNJ5^WT)	G151R maximum inhibition (KCNJ5^G151R; [1]) [%]	G151R minimum inhibition (KCNJ5^G151R; [1]) [%]	IC50 (KCNJ5^G151R; [1]) [µM]	IC50 (KCNJ5^L168R; [1]) [µM]	L168R maximum inhibition (KCNJ5^L168R; [1]) [%]	L168R minimum inhibition (KCNJ5^L168R; [1]) [%]	dose response on KCNJ5^L168R (KCNJ5^L168R)	viability at 10 µM (KCNJ5^G151R; HEK293, 72 h, mean of primary screen and hit pick, read-out: mean % effect) [%]	viability at 10 µM (KCNJ5^G151R; HEK293, ATP level 72 h after induction, uninduced = 100%, induced = 0% effect, first of the two runs (primary screen / hit pick), read-out: % effect (1)) [%]	viability at 10 µM (KCNJ5^G151R; HEK293, ATP level 72 h after induction, uninduced = 100%, induced = 0% effect, second of the two runs (primary screen / hit pick, confirmatory testing), read-out: % effect (2)) [%]	G151R IC50 (KCNJ5^G151R; [1])	inhibition of KCNJ5^MUT (structure-activity statement) (KCNJ5^G151R; macrolide series, dilution curves)	L168R IC50 (KCNJ5^L168R; [1])	WT IC50 (KCNJ5^WT; listed as idremcinal)	inhibition of KCNJ5^WT by synthesized macrolide derivatives (KCNJ5^WT; [2])	inhibition of KCNJ5^G151R by synthesized macrolide derivatives (KCNJ5^G151R; [2])	inhibition of KCNJ5^L168R by synthesized macrolide derivatives (KCNJ5^L168R; [2])
CC[C@H]1OC(=O)[C@H](C)[C@@H](O[C@H]2C[C@@](C)(OC)[C@@H](O)[C@H](C)O2)[C@H](C)[C@@H](O[C@@H]2O[C@H](C)C[C@H](N(C)C)[C@H]2O)[C@](C)(O)C[C@@H](C)C(=NO)[C@H](C)[C@@H](O)[C@]1(C)O [Erythromycin A Oxime, erythromycin A oxime]	No fit	84.11	2.49	2.88	8.13	60.00	0.65	showed a dose response	–	–	–	–	–	–	–	–	–	–
CC[C@H]1OC(=O)[C@H](C)[C@@H](O[C@H]2C[C@@](C)(OC)[C@@H](O)[C@H](C)O2)[C@H](C)[C@@H](O[C@@H]2O[C@H](C)C[C@H](N(C)C)[C@H]2O)[C@](C)(O)C[C@@H](C)C(=O)[C@H](C)[C@@H](O)[C@H]1C [Erythromycin B, erythromycin B]	No fit	84.36	7.15	1.23	4.73	80.00	1.62	–	–	–	–	–	–	–	–	–	–	–
CC[C@H]1OC(=O)[C@H](C)[C@@H](O[C@H]2C[C@@](C)(O)[C@@H](O)[C@H](C)O2)[C@H](C)[C@@H](O[C@@H]2O[C@H](C)C[C@H](N(C)C)[C@H]2O)[C@](C)(O)C[C@@H](C)C(=O)[C@H](C)[C@@H](O)[C@]1(C)O [Erythromycin C, erythromycin C]	No fit	75.00	6.72	9.19	12.2	18.43	1.41	–	–	–	–	–	–	–	–	–	–	–
CC[C@H]1OC(=O)[C@H](C)[C@@H](O[C@H]2C[C@@](C)(OC)[C@@H](O)[C@H](C)O2)[C@H](C)[C@@H](O[C@@H]2O[C@H](C)C[C@H](N(C)C)[C@H]2O)[C@](C)(O)C[C@@H](C)C(=O)[C@H](C)[C@@H](O)[C@]1(C)O [Erythromycin, erythromycin]	No fit	90.00	3.55	10.5	11.8	25.00	0.71	showed a dose response	73	91.9	54.2	–	–	–	–	–	–	–
CC[C@H]1OC(=O)[C@H](C)[C@@H](O[C@H]2C[C@@](C)(OC)[C@@H](O)[C@H](C)O2)[C@H](C)[C@@H](O[C@@H]2O[C@H](C)C[C@H](N(C)C)[C@H]2O)[C@](C)(O)C[C@](C)(F)C(=O)[C@H](C)[C@@H](O)[C@]1(C)O [Flurithromycin, flurithromycin]	No fit	–	–	–	–	–	–	–	–	–	–	No fit	negligible activity	No fit	–	–	–	–
CC[C@H]1OC(=O)[C@H](C)[C@@H](O[C@H]2C[C@@](C)(OC)[C@@H](O)[C@H](C)O2)[C@H](C)[C@@H](O[C@@H]2O[C@H](C)C[C@H](N(C)C(C)C)[C@H]2O)[C@@]2(C)CC(C)=C(O2)[C@H](C)[C@@H](O)[C@]1(C)O [Idremcinal, idremcinal]	No fit	93.39	6.38	0.6	1.99	66.69	−1.28	–	–	–	–	–	–	–	no dose response	–	–	–
CC[C@H]1OC(=O)[C@H](C)[C@@H](O[C@H]2C[C@@](C)(OC)[C@@H](O)[C@H](C)O2)[C@H](C)[C@@H](O[C@@H]2O[C@H](C)C[C@H](NC)[C@H]2O)[C@](C)(O)C[C@@H](C)/C(=N\OCOCCOC)[C@H](C)[C@@H](O)[C@]1(C)O [N-demethyl Roxithromycin, N-demethyl roxithromycin]	No fit	96.20	4.50	0.82	1.18	76.95	1.12	showed a dose response	–	–	–	–	–	–	–	–	–	–
CCCCN(C)[C@H]1C[C@@H](C)O[C@@H](O[C@@H]2[C@@H](C)[C@H](O[C@H]3C[C@@](C)(OC)[C@@H](O)[C@H](C)O3)[C@@H](C)C(=O)O[C@H](CC)[C@@](C)(O)[C@H](O)[C@@H](C)[C@@H](O)[C@H](C)C[C@@]2(C)O)[C@@H]1O [PLUX33, N-demethyl-9-deoxo-9-hydroxy-N-butyl-(9S)-erythromycin]	–	–	–	–	–	–	–	–	–	–	–	–	–	–	–	no inhibition	significant inhibition	significant inhibition
